Source: US11236078B2, “Heterocyclic inhibitors of the sodium channel” (priority 2014, dated 2022)

How the values were obtained:
Type in all cases: cell-based
human Nav1.7 (hNav1.7) [1] = molecular target: T1, human Nav1.7 (hNav1.7) (Homo sapiens, UniProt Q15858); assay: hNav1.7 slow inactivation block, manual patchclamp; conditions: HEK 293F cells stably expressing hNav1.7, slow inactivation induced in approximately 50% of channels
T1 construct: expressed in transfected cells
From the text: (§1) The generation of HEK 293F cell lines stably expressing human Nav1.7 (h Nav1.7), human Nav1.5 (hNav1.5) and rat Nav1.2 (r Nav1.2) was achieved by subcloning SCN9A, SCN5A, and SCN2A genes into inducible expression vectors followed by transfection into target cells using standard techniques. In the case of h Nav1.7, an expression vector encoding the human Navβ1 auxiliary subunit gene, SCN1B, was co-transfected with the expression vector bearing the SCN9A gene. Clones were selected using appropriate selection agents (0.3 mg/mL Zeocin and 0.8 mg/mL Geneticin) and maintained in Dulbecco's Modified Eagle medium, 10% fetal bovine serum, 1% non-essential amino acids to ˜80% confluence at 37° C. in a humidified incubator with 95% atmosphere and 5% CO2.
(§2) On the day of each experiment, cells that were grown to 80% confluence in a T75 flask were harvested for use on PatchXpress (Molecular Devices, CA, USA). Following a recovery period at 37° C. in a humidified incubator with 95% atmosphere and 5% CO2 in Dulbecco's Modified Eagle Medium, the media was replaced with an external recording solution containing (in mM): 90 TEACl, 50 NaCl, 1.8 CaCl2, 1 MgCl2, 10 HEPES, 10 glucose, adjusted to pH 7.4 with TEAOH and 300 mOsm with sucrose. The internal recording solution contained (in mM): 129 CsF, 2 MgCl2, 11 EGTA, 10 HEPES, 6 NaCl, 3 Na2ATP adjusted to pH 7.2 with CsOH and 280 mOsm with sucrose. The automated liquid handling facility of PatchXpress dispensed cells and added compound. Modulation of Nav1.7 channels by compounds was assessed by promoting the channels into the inactivated state using a conditioning voltage pulse of variable amplitude, followed by a brief hyperpolarizing pulse with a subsequent depolarized voltage step to measure the current amplitude in the presence and absence of compound.
(§3) In some cases, the potency of compounds was measured using either the Patchliner automated patch clamp platform (Nanion) or manual patch clamp techniques. Both approaches allowed the compounds to be characterized based upon the ability of a compound to modulate use- and/or state-dependence across human Nav1.7 (hNav1.7), human Nav1.5 (hNav1.5) and rat Nav1.2 (rNav1.2). The potency data is tabulated in Table 2 and is represented by six data fields. Three of the six fields represent potency data measured with the Patchliner automated platform under varying use- and state-dependent electrophysiology protocols similar to the PatchXpress protocols detailed above. For example, the second data column describes the potency of compounds in their ability to block 50% of Nav1.7 channels when the channel is repetitively activated by depolarizing voltage potentials to induce slow inactivation in approximately 50% of channels (Table 2: h Nav1.7: IC50 Slow Inactivation Block, Automated Patchclamp). The next three data fields describe the data generated from manual patchclamp electrophysiology measurements using similar methods to those employed for automated patchclamp studies.

rat Nav1.2 (rNav1.2) [2] = molecular target: T2, rat Nav1.2 (rNav1.2) (Rattus norvegicus, UniProt P04775); assay: rNav1.2 slow inactivation block, manual patchclamp; conditions: HEK 293F cells stably expressing rNav1.2
T2 construct: expressed in transfected cells
T2 sequence (P04775 whole entry): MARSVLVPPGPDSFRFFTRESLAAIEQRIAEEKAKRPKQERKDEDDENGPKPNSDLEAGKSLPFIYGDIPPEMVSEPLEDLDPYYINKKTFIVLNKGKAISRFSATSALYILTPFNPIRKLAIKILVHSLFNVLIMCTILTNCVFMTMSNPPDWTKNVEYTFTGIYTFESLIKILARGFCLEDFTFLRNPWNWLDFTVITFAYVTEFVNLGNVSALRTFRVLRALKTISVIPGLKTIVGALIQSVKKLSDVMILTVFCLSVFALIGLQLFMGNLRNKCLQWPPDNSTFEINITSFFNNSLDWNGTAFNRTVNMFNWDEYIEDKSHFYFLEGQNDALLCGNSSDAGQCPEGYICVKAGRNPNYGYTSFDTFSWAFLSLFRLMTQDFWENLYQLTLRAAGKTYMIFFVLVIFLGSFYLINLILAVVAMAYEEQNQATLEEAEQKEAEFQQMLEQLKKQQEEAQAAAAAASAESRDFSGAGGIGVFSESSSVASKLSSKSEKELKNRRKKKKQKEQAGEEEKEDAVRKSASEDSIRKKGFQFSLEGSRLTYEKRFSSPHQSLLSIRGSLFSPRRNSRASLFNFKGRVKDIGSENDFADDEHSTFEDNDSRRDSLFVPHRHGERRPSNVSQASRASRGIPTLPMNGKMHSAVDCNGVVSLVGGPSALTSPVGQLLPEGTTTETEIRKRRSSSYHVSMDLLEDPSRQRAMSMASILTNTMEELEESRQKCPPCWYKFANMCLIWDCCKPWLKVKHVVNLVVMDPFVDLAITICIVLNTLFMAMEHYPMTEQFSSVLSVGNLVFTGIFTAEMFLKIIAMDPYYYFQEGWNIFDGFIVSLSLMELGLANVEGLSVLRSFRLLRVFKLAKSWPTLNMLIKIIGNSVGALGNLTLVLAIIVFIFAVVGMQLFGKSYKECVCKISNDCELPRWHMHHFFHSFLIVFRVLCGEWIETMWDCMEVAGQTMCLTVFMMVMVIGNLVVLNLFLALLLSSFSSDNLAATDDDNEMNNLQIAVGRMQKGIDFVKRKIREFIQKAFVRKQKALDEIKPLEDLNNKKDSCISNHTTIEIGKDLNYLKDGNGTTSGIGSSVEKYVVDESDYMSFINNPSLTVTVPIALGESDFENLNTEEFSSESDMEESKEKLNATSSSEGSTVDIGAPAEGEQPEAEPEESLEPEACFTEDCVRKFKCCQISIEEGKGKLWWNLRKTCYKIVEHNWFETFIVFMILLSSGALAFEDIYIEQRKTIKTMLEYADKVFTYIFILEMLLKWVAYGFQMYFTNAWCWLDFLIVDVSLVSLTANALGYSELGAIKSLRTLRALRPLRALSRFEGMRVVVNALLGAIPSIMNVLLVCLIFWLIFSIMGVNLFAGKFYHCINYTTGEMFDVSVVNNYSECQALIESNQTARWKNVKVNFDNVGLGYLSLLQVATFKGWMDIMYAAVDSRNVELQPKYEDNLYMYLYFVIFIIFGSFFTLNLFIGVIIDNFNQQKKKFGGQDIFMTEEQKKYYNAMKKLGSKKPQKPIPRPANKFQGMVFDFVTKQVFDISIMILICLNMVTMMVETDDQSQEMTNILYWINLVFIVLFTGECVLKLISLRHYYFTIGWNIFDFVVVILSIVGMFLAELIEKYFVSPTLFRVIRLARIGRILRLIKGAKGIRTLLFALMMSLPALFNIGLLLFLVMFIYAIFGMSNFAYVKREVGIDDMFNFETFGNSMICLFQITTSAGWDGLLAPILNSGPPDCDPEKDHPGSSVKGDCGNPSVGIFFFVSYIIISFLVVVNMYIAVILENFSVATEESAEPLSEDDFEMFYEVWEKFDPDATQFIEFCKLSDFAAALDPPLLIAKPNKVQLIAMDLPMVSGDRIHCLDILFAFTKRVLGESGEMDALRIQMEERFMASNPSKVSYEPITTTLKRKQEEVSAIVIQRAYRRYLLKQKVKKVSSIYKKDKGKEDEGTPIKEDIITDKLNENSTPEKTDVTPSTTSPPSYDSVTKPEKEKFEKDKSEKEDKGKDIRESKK
From the text: as §1, §2, §3

rat Nav1.2 (rNav1.2) [3] = molecular target: T2, rat Nav1.2 (rNav1.2); assay: rNav1.2 slow inactivation block, automated patchclamp; conditions: HEK 293F cells stably expressing rNav1.2
From the text: as §1, §2, §3

human Nav1.7 (hNav1.7) [4] = molecular target: T1, human Nav1.7 (hNav1.7); assay: hNav1.7 slow inactivation block, automated patchclamp; conditions: HEK 293F cells stably expressing hNav1.7, slow inactivation induced in approximately 50% of channels
From the text: as §1, §2, §3

T1 sequence (Q15858 whole entry): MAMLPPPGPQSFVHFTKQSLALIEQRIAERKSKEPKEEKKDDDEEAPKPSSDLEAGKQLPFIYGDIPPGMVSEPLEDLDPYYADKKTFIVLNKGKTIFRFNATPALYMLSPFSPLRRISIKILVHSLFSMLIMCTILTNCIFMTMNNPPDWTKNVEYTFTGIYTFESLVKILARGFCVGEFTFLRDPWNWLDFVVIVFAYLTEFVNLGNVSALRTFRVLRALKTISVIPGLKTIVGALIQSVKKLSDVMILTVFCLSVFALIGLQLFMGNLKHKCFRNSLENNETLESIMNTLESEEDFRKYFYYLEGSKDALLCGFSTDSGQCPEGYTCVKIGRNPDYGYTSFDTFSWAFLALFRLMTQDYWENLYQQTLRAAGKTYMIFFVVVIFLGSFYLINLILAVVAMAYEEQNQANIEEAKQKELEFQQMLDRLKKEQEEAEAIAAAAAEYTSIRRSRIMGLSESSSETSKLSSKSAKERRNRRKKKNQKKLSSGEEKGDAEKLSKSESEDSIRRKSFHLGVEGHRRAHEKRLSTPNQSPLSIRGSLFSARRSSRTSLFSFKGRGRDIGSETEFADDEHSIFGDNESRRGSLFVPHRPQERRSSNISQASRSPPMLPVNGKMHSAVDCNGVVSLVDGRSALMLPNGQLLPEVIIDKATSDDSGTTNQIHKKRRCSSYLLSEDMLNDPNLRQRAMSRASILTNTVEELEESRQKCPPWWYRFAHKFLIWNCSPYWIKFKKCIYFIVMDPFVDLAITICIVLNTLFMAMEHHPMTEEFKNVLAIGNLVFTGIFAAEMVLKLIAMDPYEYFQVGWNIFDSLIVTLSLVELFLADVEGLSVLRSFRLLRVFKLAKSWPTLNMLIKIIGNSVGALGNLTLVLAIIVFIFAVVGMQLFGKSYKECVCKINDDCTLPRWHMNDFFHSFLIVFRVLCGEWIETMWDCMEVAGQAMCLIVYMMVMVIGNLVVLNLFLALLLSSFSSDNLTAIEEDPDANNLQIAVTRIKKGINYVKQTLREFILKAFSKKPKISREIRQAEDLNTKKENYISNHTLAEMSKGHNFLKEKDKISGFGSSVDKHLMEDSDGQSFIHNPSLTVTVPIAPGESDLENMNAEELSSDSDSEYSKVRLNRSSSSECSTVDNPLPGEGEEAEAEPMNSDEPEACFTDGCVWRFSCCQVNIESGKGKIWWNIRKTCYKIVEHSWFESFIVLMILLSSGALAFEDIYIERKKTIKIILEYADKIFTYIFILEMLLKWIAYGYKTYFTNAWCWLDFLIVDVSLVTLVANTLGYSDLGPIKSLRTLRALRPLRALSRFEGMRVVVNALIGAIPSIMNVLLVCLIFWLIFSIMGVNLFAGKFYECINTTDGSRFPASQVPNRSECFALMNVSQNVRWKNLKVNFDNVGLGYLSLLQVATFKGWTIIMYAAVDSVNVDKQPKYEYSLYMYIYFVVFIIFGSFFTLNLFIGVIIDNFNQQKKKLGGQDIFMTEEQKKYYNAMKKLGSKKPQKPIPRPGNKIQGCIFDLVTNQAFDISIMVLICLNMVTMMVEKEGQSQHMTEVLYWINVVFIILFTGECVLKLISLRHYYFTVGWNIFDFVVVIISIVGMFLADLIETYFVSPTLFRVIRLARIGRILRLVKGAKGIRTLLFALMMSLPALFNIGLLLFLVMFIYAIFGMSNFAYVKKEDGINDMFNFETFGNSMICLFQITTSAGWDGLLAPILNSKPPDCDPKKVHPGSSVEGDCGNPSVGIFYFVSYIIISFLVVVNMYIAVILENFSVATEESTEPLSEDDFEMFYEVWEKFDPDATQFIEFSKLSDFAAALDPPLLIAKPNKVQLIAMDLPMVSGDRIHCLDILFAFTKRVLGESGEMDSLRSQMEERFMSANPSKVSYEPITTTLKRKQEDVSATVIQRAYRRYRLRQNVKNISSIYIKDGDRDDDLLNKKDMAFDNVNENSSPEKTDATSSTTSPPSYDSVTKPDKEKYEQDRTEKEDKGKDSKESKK
T1 sequence (Q07699 19-218 partner): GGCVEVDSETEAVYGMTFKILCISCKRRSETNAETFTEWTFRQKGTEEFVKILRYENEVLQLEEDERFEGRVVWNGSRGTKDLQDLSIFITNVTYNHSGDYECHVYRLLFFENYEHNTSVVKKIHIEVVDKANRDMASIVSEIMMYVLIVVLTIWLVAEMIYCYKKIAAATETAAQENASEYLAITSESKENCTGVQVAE

IC50 (human Nav1.7 (hNav1.7) [1])	IC50 (rat Nav1.2 (rNav1.2) [2])	IC50 (rat Nav1.2 (rNav1.2) [3])	IC50 (human Nav1.7 (hNav1.7) [4])	SMILES
2680 nM	2370 nM			O=C(NCc1cccc(-c2cc(C(F)(F)F)cc(C(F)(F)F)c2)c1)C1CC[C@H](O)C1 (stereo partly drawn) [Example 63, (3S)-N-({3-[3,5-bis(trifluoromethyl)phenyl]phenyl}methyl)-3-hydroxycyclopentane-1-carboxamide]
777 nM	733 nM	2750 nM	2470 nM	CN(Cc1cccc(-c2cc(C(F)(F)F)cc(C(F)(F)F)c2)c1)C(=O)[C@@H]1CCCN1 [Compound 58, (2S)-N-({3-[3,5-bis(trifluoromethyl)phenyl]phenyl}methyl)-N-methylpyrrolidine-2-carboxamide]
4840 nM	11400 nM	~25200 nM	~36000 nM	O=S(=O)(Nc1cccnn1)c1cc(F)c(Oc2cc(C(F)(F)F)cc(C(F)(F)F)c2)cc1F [Compound 30, 4-[3,5-bis(trifluoromethyl)phenoxy]-2,5-difluoro-N-(pyridazin-3-yl)benzene-1-sulfonamide]
			> 32000 nM	O=S(=O)(Nc1nncs1)c1cc(F)c(Oc2cc(C(F)(F)F)cc(C(F)(F)F)c2)cc1F [Compound 8, 4-[3,5-bis(trifluoromethyl)phenoxy]-2,5-difluoro-N-(1,3,4-thiadiazol-2-yl)benzene-1-sulfonamide]
160 nM	176 nM	12300 nM	5620 nM	CN1CCC[C@H]1C(=O)NCc1cccc(-c2cc(C(F)(F)F)cc(C(F)(F)F)c2)c1 [Compound 57, (2S)-N-({3-[3,5-bis(trifluoromethyl)phenyl]phenyl}methyl)-1-methylpyrrolidine-2-carboxamide]
4960 nM	4320 nM		> 32000 nM	O=C(Nc1nncs1)c1cc(F)c(Oc2cc(C(F)(F)F)cc(C(F)(F)F)c2)cc1F [Compound 15, 4-[3,5-bis(trifluoromethyl)phenoxy]-2,5-difluoro-N-(1,3,4-thiadiazol-2-yl)benzamide]
> 10000 nM	> 10000 nM	> 32000 nM	> 32000 nM	O=C(O)c1cc(Oc2cc(F)c(S(=O)(=O)Nc3ncns3)cc2F)cc(C(F)(F)F)c1 [Compound 23, 3-{2,5-difluoro-4-[(1,2,4-thiadiazol-5-yl)sulfamoyl]phenoxy}-5-(trifluoromethyl)benzoic]
477 nM	351 nM			O=C(NCc1cccc(-c2cc(C(F)(F)F)cc(C(F)(F)F)c2)c1)C1CC[C@@H](F)C1 (stereo partly drawn) [Example 65, (3R)-N-({3-[3,5-bis(trifluoromethyl)phenyl]phenyl}methyl)-3-fluorocyclopentane-1-carboxamide]
	> 10000 nM	> 32000 nM	21100 nM	O=S(=O)(Nc1ncns1)c1ccc(Oc2cc(C(F)(F)F)cc(C(F)(F)F)c2)c(Cl)c1 [Compound 16, 4-[3,5-bis(trifluoromethyl)phenoxy]-3-chloro-N-(1,2,4-thiadiazol-5-yl)benzene-1-sulfonamide]
> 3200 nM		> 32000 nM	> 32000 nM	O=C(Cc1cc(F)c(Oc2cc(C(F)(F)F)cc(C(F)(F)F)c2)cc1F)Nc1ncns1 [Compound 22, 2-{4-[3,5-bis(trifluoromethyl)phenoxy]-2,5-difluorophenyl}-N-(1,2,4-thiadiazol-5-yl)acetamide]
			> 32000 nM	O=S(=O)(Nc1nncs1)c1ccc(Oc2cc(C(F)(F)F)cc(C(F)(F)F)c2)cc1 [Compound 7, 4-[3,5-bis(trifluoromethyl)phenoxy]-N-(1,3,4-thiadiazol-2-yl)benzene-1-sulfonamide]
			~29500 nM	O=S(=O)(Nc1nccs1)c1ccc(Oc2cc(C(F)(F)F)cc(C(F)(F)F)c2)cc1 [Compound 9, 4-[3,5-bis(trifluoromethyl)phenoxy]-N-(1,3-thiazol-2-yl)benzene-1-sulfonamide]
~10300 nM	> 10000 nM		19200 nM	CS(=O)(=O)NC(=O)c1cc(F)c(Oc2cc(C(F)(F)F)cc(C(F)(F)F)c2)cc1F [Compound 13, 4-[3,5-bis(trifluoromethyl)phenoxy]-2,5-difluoro-N-methanesulfonylbenzamide]
~9760 nM		> 32000 nM	> 32000 nM	O=S(=O)(Nc1ccncn1)c1cc(F)c(Oc2cc(C(F)(F)F)cc(C(F)(F)F)c2)cc1F [Compound 18, 4-[3,5-bis(trifluoromethyl)phenoxy]-2,5-difluoro-N-(pyrimidin-4-yl)benzene-1-sulfonamide]
~16200 nM			> 32000 nM	CCNC(=O)c1cc(Oc2cc(F)c(S(=O)(=O)Nc3ncns3)cc2F)cc(C(F)(F)F)c1 [Compound 35, 3-{2,5-difluoro-4-[(1,2,4-thiadiazol-5-yl)sulfamoyl]phenoxy}-N-ethyl-5 (trifluoromethyl)benzamide]
1340 nM	1890 nM		5780 nM	O=C(NCc1cc(F)c(Oc2ccccc2)cc1F)[C@@H]1CCCN1 [Compound 3, (2S)-N-[(2,5-difluoro-4-phenoxyphenyl)methyl]pyrrolidine-2-carboxamide]
~39000 nM	> 10000 nM			O=S(=O)(Nc1ncns1)c1ccc(Oc2cc(C(F)(F)F)cc(C(F)(F)F)c2)cc1 [Compound 6, 4-[3,5-bis(trifluoromethyl)phenoxy]-N-(1,2,4-thiadiazol-5-yl)benzene-1-sulfonamide]
~5590 nM	> 3200 nM		> 32000 nM	O=C(Nc1ncns1)c1cc(F)c(Oc2cc(C(F)(F)F)cc(C(F)(F)F)c2)cc1F [Compound 12, 4-[3,5-bis(trifluoromethyl)phenoxy]-2,5-difluoro-N-(1,2,4-thiadiazol-5-yl)benzamide]
> 10000 nM	> 10000 nM		> 32000 nM	N#Cc1cc(S(=O)(=O)Nc2nncs2)ccc1Oc1cc(C(F)(F)F)cc(C(F)(F)F)c1 [Compound 10, 4-[3,5-bis(trifluoromethyl)phenoxy]-3-cyano-N-(1,3,4-thiadiazol-2-yl)benzene-1-sulfonamide]
1570 nM	961 nM			O=C(NCc1cccc(-c2cc(C(F)(F)F)cc(C(F)(F)F)c2)c1)C1CC[C@@H](O)C1 (stereo partly drawn) [Example 64, (3R)-N-({3-[3,5-bis(trifluoromethyl)phenyl]phenyl}methyl)-3-hydroxycyclopentane-1-carboxamide]
~19200 nM		> 32000 nM	~41800 nM	CNC(=O)c1cc(Oc2cc(F)c(S(=O)(=O)Nc3ncns3)cc2F)cc(C(F)(F)F)c1 [Compound 25, 3-{2,5-difluoro-4-[(1,2,4-thiadiazol-5-yl)sulfamoyl]phenoxy}-N-methyl-5-(trifluoromethyl)benzamide]
> 3200 nM	> 10000 nM		> 32000 nM	O=S(=O)(Nc1ncns1)c1ccc(Oc2cc(C(F)(F)F)cc(C(F)(F)F)c2)c(F)c1 [Compound 11, 4-[3,5-bis(trifluoromethyl)phenoxy]-3-fluoro-N-(1,2,4-thiadiazol-5-yl)benzene-1-sulfonamide]
~6930 nM			~21700 nM	O=C(c1cc(Oc2cc(F)c(S(=O)(=O)Nc3ncns3)cc2F)cc(C(F)(F)F)c1)N1CCCC1 [Compound 39, 2,5-difluoro-4-{3-[(pyrrolidin-1-yl)carbonyl]-5-(trifluoromethyl)phenoxy}-N-(1,2,4-thiadiazol-5-yl)benzene-1-sulfonamide]
741 nM	744 nM		5130 nM	O=C(NCc1cc(-c2cc(C(F)(F)F)cc(C(F)(F)F)c2)cc(C(F)(F)F)c1)[C@@H]1C[C@H](F)CN1 [Compound 54, (2S,4S)-4-fluoro-N-((3′,5,5′-tris(trifluoromethyl)-[1,1′-biphenyl]-3-yl)methyl)pyrrolidine-2-carboxamide]
> 10000 nM			> 32000 nM	COCc1nsc(NS(=O)(=O)c2cc(F)c(Oc3cc(OC)cc(C(F)(F)F)c3)cc2F)n1 [Compound 44, 2,5-difluoro-4-[3-methoxy-5-(trifluoromethyl)phenoxy]-N-[3-(methoxymethyl)-1,2,4-thiadiazol-5-yl]benzene-1-sulfonamide]
